From patent US8877949B2, “Furo[3,2-g]chromene compounds and uses thereof” (Shenyang Pharmaceutical University, priority 2010, dated 2014) come the findings set out here.

The test system of series [1] is Ovarian Cancer Cells SKOV3. In words: Effect on the proliferation of ovarian cancer cells SKOV3 (MTT). It counts as cell-based. As to the method:
Cells in the logarithmic growth phase were digested with trypsin, added to a 96-well plate, in a density of 6×10^3 cells/well, and cultured in a 37° C., 5% CO2 incubator. The next day, the plated was transferred to and kept in a 4° C. incubator for 1 h after the adherence of most cells, so as to achieve synchronized growth of the cells. The supernatant was sucked out, and a RPMI 1640 medium containing 10% fetal calf serum (FCS) was added, 200 μL/well. The cells were grouped according to the design of the experiment. The injectable solution of the compound prepared with sterile physiological saline was added to the 96 wells, 200 μL/well, so that the concentrate of the medicament in each well were 1 mg/mL, 2 mg/mL and 5 mg/mL, respectively. A concentration of 0 mg/mL was used as a negative control group. After subsequent cultivation for 24, 48, or 72 h, 20 μL MTT solution (with a concentration of 5 mg/mL) was added to each well, respectively. The plate was shaken gently, returned to the incubator and incubated for another 4 h. Then the supernatant was sucked out completely, and 200 μL of dimethyl sulfoxide was added to each well. The plate was shaken for 5-10 min on a shaker. The absorption (A=580) of each well at a wavelength of 580 nm was measured using a microplate reader. The A=580 value was proportional to the number of live cells.

Series [2] relates to Osteosarcoma Cells U2OS-EGFP-4A12G. In words: Effect on the proliferation of osteosarcoma cells U2OS-EGFP-4A12G (MTT). It counts as cell-based. To be noted: n = 3. How it is done: Cells in the logarithmic growth phase were digested with trypsin, counted with trypan blue, and prepared into a cellular suspension with a density of 1×10^4 cells/mL. The suspension was seeded in a 96-well plate, 200 μL/well, about 2×10^3 cells/well, and pre-cultured for 24 h. […] A concentration of 0 mg/mL was used as a negative control group. After subsequent cultivatation for 0 h, 12 h, 24 h or 48 h, 20 μL MTT solution (5 mg/mL) was added to each well. The cultivation was terminated after another 4 h incubation. The supernatant in each well was sucked out carefully, and 150 μL of dimethyl sulfoxide (DMSO) was added to each well. The plate was shaken for 10 min, so that formazan was dissolved thoroughly. The absorption value (A value) of each well was measured using an enzyme linked immunosorbent detector, at a selected wavelength of 490 nm. The measurement was repeated for 5 times.

Each structure is given as a SMILES string.

One may read the IC50 as the concentration that inhibits the measured activity by half. A higher IC50 goes with weaker potency. With `CN(C)CCOc1ccc(-c2c(C(=O)c3ccc(Br)cc3)oc3cc4c(cc23)CCCO4)cc1` [Example 44, 2-(4-bromobenzoyl)-3-[4-(dimethylaminoethoxy)phenyl]-6,7-dihydrogen-5H-furo[3,2-g]chromene], the IC50 is 19 µM in series [1] (Homo sapiens, SK-OV-3, n = 3) and 15.6 µM in series [2].
Turning to `O=C(c1ccc(Br)cc1)c1oc2cc3c(cc2c1-c1ccc(OCCN2CCCCC2)cc1)CCCO3` [Example 42, 2-(4-bromobenzoyl)-3-[4-(piperidinoethoxy)phenyl]-6,7-dihydrogen-5H-furo[3,2-g]chromene], the half-maximal inhibitory concentration (IC50) was determined as 32.8 µM in series [1] (Homo sapiens, SK-OV-3, n = 3) and 13.3 µM in series [2].
Compound `COc1ccc(-c2c(C(=O)c3ccc(Cl)cc3)oc3cc4c(cc23)CCCO4)cc1` [Example 3, 2-(4-chlorobenzoyl)-3-(4-methoxyphenyl)-6,7-dihydrogen-5H-furo[3,2-g]chromene] came in with an IC50 in series [2] of 21.7 µM.
Consider `O=C(c1ccccc1)c1oc2cc3c(cc2c1-c1ccc(O)cc1)CCCO3` [Example 7, 2-benzoyl-3-(4-hydroxyphenyl)-6,7-dihydrogen-5H-furo[3,2-g]chromene], for which the half-maximal inhibitory concentration (IC50) in series [1] (Homo sapiens, SK-OV-3, n = 3) was 0.8 µM; in series [2], 13.7 µM.
On to `CCN(CC)CCOc1ccc(-c2c(C(=O)c3ccc(C)cc3)oc3cc4c(cc23)CCCO4)cc1` [Example 35, 2-(4-methylbenzoyl)-3-[4-(diethylaminoethoxy)phenyl]-6,7-dihydrogen-5H-furo[3,2-g]chromene], for which the half-inhibitory concentration (IC50) amounted to 29.7 µM in series [1] (Homo sapiens, SK-OV-3, n = 3) and 5.8 µM in series [2].
Usually melting point stands for the temperature of the solid-liquid transition. On to `COc1ccc(-c2c(C(=O)c3ccccc3)oc3cc4c(cc23)CCCO4)cc1` [Example 1, 2-benzoyl-3-(4-methoxyphenyl)-6,7-dihydrogen-5H-furo[3,2-g]chromene], for which the melting point lay in the range of 106.3 to 108.5 °C.
Consider `CCN(CC)CCOc1ccc(C(=O)c2oc3cc4c(cc3c2-c2ccc(OC)cc2)CCCO4)cc1` [Example 50, 2-[4-(diethylaminoethoxy)benzoyl]-3-(4-methoxyphenyl)-6,7-dihydrogen-5H-furo[3,2-g]chromene], for which the IC50 worked out at 14.5 µM in series [1] (Homo sapiens, SK-OV-3, n = 3) and 5.5 µM in series [2].
The like results for `O=C(c1ccc(Br)cc1)c1oc2cc3c(cc2c1-c1ccc(OCCN2CCOCC2)cc1)CCCO3` [Example 41, 2-(4-bromobenzoyl)-3-[4-(morpholinoethoxy)phenyl]-6,7-dihydrogen-5H-furo[3,2-g]chromene] were, in that order, 42.5 µM and 5 µM.
Take `COc1ccc(-c2c(C(=O)c3ccc(OCCN4CCCCC4)cc3)oc3cc4c(cc23)CCCO4)cc1` [Example 48, 2-[4-(piperidinoethoxy)benzoyl]-3-(4-methoxyphenyl)-6,7-dihydrogen-5H-furo[3,2-g]chromene]: the IC50 in series [1] (Homo sapiens, SK-OV-3, n = 3) was found to be 14.5 µM; in series [2], 5.1 µM.
Consider `CCN(CC)CCOc1ccc(-c2c(C(=O)c3ccccc3)oc3cc4c(cc23)CCCO4)cc1` [Example 21, 2-benzoyl-3-[4-(diethylaminoethoxy)phenyl]-6,7-dihydrogen-5H-furo[3,2-g]chromene], for which the 50% inhibitory concentration (IC50) in series [1] (n = 3) is 28.2 µM; in series [2], 16.5 µM.
In turn, `COc1ccc(C(=O)c2oc3cc4c(cc3c2-c2ccccc2)CCCO4)cc1` [Example 2, 2-(4-methoxybenzoyl)-3-phenyl-6,7-dihydrogen-5H-furo[3,2-g]chromene] had a melting point of 130.3 to 132.5 °C.
As for `O=C(c1ccc(OCCN2CCCCC2)cc1)c1oc2cc3c(cc2c1-c1ccc(O)cc1)CCCO3` [Example 55, 2-[4-(piperidinoethoxy)benzoyl]-3-(4-hydroxyphenyl)-6,7-dihydrogen-5H-furo[3,2-g]chromene], the IC50 in series [1] (n = 3) worked out at 13.6 µM; in series [2], 10.8 µM.
Consider `Cc1ccc(C(=O)c2oc3cc4c(cc3c2-c2ccc(OCCN(C)C)cc2)CCCO4)cc1` [Example 36, 2-(4-methylbenzoyl)-3-[4-(dimethylaminoethoxy)phenyl]-6,7-dihydrogen-5H-furo[3,2-g]chromene], for which the half-inhibitory concentration (IC50) in series [1] (Homo sapiens, SK-OV-3, n = 3) was 10.3 µM; in series [2] it was 7.7 µM.
The matching figures for `CCN(CC)CCOc1ccc(-c2c(C(=O)c3ccc(Cl)cc3)oc3cc4c(cc23)CCCO4)cc1` [Example 31, 2-(4-chlorobenzoyl)-3-[4-(diethylaminoethoxy)phenyl]-6,7-dihydrogen-5H-furo[3,2-g]chromene]: 8.5 µM and 36.1 µM.
Consider `O=C(c1ccc(Cl)cc1)c1oc2cc3c(cc2c1-c1ccc(OCCN2CCCCC2)cc1)CCCO3` [Example 30, 2-(4-chlorobenzoyl)-3-[4-(piperidinoethoxy)phenyl]-6,7-dihydrogen-5H-furo[3,2-g]chromene], for which the half-inhibitory concentration (IC50) in series [1] (n = 3) was 72.2 µM; in series [2], 26.3 µM.
